Reference: ChEMBL document CHEMBL6103591, “Discovery of naphthoquinone-furo-piperidone derivatives as dual targeting agents of STAT3 and NQO1 for the treatment of breast cancer” (Eur J Med Chem, 2025)
The source made the active and inactive calls. The rule behind the calls is not given here.

What was measured:
[1] = target: T1, Signal transducer and activator of transcription 3 (Homo sapiens, UniProt P40763); experiment: Inhibition of phosphorylated STAT3 nuclear translocation in human MDA-MB-231 cells incubated for 6 hrs by immunofluorescence assay; type: cell-based; conditions: dose 1.5-3 µM
T1 sequence (P40763 whole entry): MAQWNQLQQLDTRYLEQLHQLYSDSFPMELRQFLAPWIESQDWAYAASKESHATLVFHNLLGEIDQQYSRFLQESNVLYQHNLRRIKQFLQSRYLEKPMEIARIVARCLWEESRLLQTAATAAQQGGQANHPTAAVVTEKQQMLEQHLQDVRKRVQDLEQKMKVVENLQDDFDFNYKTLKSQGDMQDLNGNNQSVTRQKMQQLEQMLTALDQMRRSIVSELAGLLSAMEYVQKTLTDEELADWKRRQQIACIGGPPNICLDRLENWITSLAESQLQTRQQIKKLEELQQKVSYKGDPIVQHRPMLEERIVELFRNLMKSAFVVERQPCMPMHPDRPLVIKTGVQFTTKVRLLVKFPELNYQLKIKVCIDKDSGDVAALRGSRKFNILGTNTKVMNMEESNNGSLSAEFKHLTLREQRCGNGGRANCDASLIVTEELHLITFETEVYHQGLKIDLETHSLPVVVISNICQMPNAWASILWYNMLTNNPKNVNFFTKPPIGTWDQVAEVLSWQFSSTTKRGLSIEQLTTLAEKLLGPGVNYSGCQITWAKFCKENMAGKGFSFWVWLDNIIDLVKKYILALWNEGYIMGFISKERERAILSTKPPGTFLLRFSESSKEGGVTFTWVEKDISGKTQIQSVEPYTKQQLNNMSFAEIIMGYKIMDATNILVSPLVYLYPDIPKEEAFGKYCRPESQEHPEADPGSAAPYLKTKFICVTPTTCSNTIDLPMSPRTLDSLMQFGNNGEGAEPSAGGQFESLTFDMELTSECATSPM

[2] = test system: MCF7; experiment: Induction of ROS generation in NQO1-rich human MCF7 cells assessed as increase in intracellular ROS level by DCFH-DA staining based confocal microscopic analysis; type: functional, cell-based; conditions: dose 1.25-2.5 µM
[3] = test system: MDA-MB-231; experiment: Effect on STAT5 expression level in human MDA-MB-231 cells at 0.6 to 2.5 uM incubated for 24 hrs by Western blot analysis; type: functional, cell-based; conditions: dose 0.6-2.5 µM
[4] = test system: MDA-MB-468; experiment: Induction of apoptosis in human MDA-MB-468 cells assessed as increase in cleaved-caspase 3 level at 1.5 to 3 uM by Western blotting analysis; type: functional, cell-based; conditions: dose 1.5-3 µM
[5] = test system: MCF7; experiment: Induction of ROS generation in NQO1-rich human MCF7 cells assessed as increase in intracellular ROS level at 1.25 uM in presence of DIC by DCFH-DA staining based confocal microscopic analysis; type: functional, cell-based
[6] = test system: MDA-MB-231; experiment: Antitumor activity against human MDA-MB-231 cells xenografted in female BALB/c nude mouse assessed as reduction in tumor volume at 10 mg/kg, ip administered daily and measured every 2 days for 21 days; type: functional, organism-based; conditions: time 21.0 day
[7] = test system: MDA-MB-468; experiment: Induction of apoptosis in human MDA-MB-468 cells assessed as increase in Bax level at 1.5 to 3 uM by Western blotting analysis; type: functional, cell-based; conditions: dose 1.5-3 µM
[8] = test system: MDA-MB-231; experiment: Antimetastatic activity against human MDA-MB-231 cells assessed as reduction in cell invasion incubated for 24 hrs by crystal violet staining based transwell invasion assay; type: functional; conditions: dose 0.1875-3 µM
[9] = test system: MCF7; experiment: Induction of DNA damage in human MCF7 cells at 1.25 uM incubated for 24 hrs in presence of DIC by fluorescence microscopy based alkaline comet assay; type: functional, cell-based
[10] = test system: MDA-MB-468; experiment: Antiproliferative activity against human MDA-MB-468 cells transfected with shSTAT3 RNA at 1.5 uM incubated for 24 hrs by MTT assay; type: functional, cell-based
[11] = test system: MDA-MB-231; experiment: Induction of apoptosis in human MDA-MB-231 cells assessed as increase in cleaved-caspase 3 level at 1.5 to 3 uM by Western blotting analysis; type: functional, cell-based; conditions: dose 1.5-3 µM
[12] = target: T2, Signal transducer and activator of transcription 1-alpha/beta (Homo sapiens) (UniProt P42224); experiment: Inhibition of STAT1 phosphorylation at Tyr701 residue in human MDA-MB-231 cells at 0.6 to 2.5 uM incubated for 24 hrs by Western blot analysis; type: cell-based; conditions: dose 0.6-2.5 µM
T2 sequence (whole entry): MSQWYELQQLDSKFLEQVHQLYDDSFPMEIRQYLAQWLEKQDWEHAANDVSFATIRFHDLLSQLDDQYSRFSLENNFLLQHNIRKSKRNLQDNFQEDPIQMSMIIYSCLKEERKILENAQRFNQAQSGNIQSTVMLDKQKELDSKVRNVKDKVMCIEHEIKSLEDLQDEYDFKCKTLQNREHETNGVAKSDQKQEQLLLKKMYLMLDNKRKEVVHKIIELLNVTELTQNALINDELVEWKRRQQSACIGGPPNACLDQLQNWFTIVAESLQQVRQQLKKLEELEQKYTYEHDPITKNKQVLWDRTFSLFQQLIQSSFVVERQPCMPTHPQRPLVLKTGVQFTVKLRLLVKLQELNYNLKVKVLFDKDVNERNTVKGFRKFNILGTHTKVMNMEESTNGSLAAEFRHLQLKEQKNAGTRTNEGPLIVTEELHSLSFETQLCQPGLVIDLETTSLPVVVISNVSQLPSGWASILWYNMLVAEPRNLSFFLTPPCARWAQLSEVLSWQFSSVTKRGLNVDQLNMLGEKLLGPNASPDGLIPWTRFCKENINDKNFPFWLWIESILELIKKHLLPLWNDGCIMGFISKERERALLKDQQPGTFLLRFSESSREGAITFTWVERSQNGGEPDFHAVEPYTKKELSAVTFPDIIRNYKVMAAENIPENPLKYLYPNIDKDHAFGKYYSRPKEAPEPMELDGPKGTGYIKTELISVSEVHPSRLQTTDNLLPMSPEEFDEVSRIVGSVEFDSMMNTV

[13] = test system: Mus musculus; experiment: In vivo inhibition of STAT3 in female BALB/c nude mouse xenografted with human MDA-MB-231 cells assessed as decrease in p-STAT3 level in tumor tissue at 10 mg/kg, ip administered daily and measured every 2 days for 21 days by IHC staining analysis; type: functional, organism-based; conditions: time 21.0 day
[14] = test system: MDA-MB-231; experiment: Effect on STAT1 expression level in human MDA-MB-231 cells at 0.6 to 2.5 uM incubated for 24 hrs by Western blot analysis; type: functional, cell-based; conditions: dose 0.6-2.5 µM
[15] = test system: MDA-MB-231; experiment: Antitumor activity against human MDA-MB-231 cells xenografted in female BALB/c nude mouse assessed as increase in TUNEL-positive cells in tumor tissue at 10 mg/kg, ip administered daily and measured every 2 days for 21 days by immunofluorescence analysis; type: functional, organism-based; conditions: time 21.0 day
[16] = target: T1, Signal transducer and activator of transcription 3; experiment: Inhibition of STAT3 activation in human MDA-MB-231 cells assessed as reduction in STAT3 phosphorylation at Tyr705 residue at 1 uM measured after 24 hrs by Western blot analysis relative to control; type: cell-based
[17] = target: T1, Signal transducer and activator of transcription 3; experiment: Inhibition of STAT3 in human MDA-MB-231 cells assessed as downregulation of c-Myc expression measured after 24 hrs by Western blot analysis; type: cell-based; conditions: dose 0.6-2.5 µM
[18] = test system: MDA-MB-468; experiment: Induction of apoptosis in human MDA-MB-468 cells assessed as increase in cleaved PARP level at 1.5 to 3 uM by Western blotting analysis; type: functional, cell-based; conditions: dose 1.5-3 µM, time 24.0 hrs
[19] = target: T1, Signal transducer and activator of transcription 3; experiment: Inhibition of STAT3 in human MDA-MB-231 cells assessed as downregulation of Cyclin-D1 expression measured after 24 hrs by Western blot analysis; type: cell-based; conditions: dose 0.6-2.5 µM
[20] = target: T1, Signal transducer and activator of transcription 3; experiment: Inhibition of STAT3 in human MDA-MB-231 cells assessed as downregulation of survivin expression measured after 24 hrs by Western blot analysis; type: cell-based; conditions: dose 0.6-2.5 µM
[21] = test system: MCF7; experiment: Induction of DNA damage in human MCF7 cells at 1.25 uM incubated for 24 hrs by fluorescence microscopy based alkaline comet assay; type: functional, cell-based
[22] = test system: MDA-MB-468; experiment: Inhibition of colony formation in human MDA-MB-468 cells at 3 uM incubated for 10 to 15 days by crystal violet staining based microscopic analysis; type: functional, cell-based; conditions: time 10-15 day
[23] = test system: MDA-MB-231; experiment: Antimetastatic activity against human MDA-MB-231 cells assessed as reduction in cell migration incubated for 24 hrs by crystal violet staining based transwell assay; type: functional; conditions: dose 0.1875-3 µM
[24] = test system: MDA-MB-231; experiment: Induction of apoptosis in human MDA-MB-231 cells assessed as increase in cleaved PARP level at 1.5 to 3 uM by Western blotting analysis; type: functional, cell-based; conditions: dose 1.5-3 µM
[25] = test system: MDA-MB-231; experiment: Inhibition of colony formation in human MDA-MB-231 cells at 3 uM incubated for 10 to 15 days by crystal violet staining based microscopic analysis; type: functional, cell-based; conditions: time 10-15 day
[26] = test system: MDA-MB-231; experiment: Antiproliferative activity against human MDA-MB-231 cells transfected with shSTAT3 RNA at 1.5 uM incubated for 24 hrs by MTT assay; type: functional, cell-based
[27] = target: T1, Signal transducer and activator of transcription 3; experiment: Inhibition of phosphorylated STAT3 nuclear translocation in human MDA-MB-468 cells incubated for 6 hrs by immunofluorescence assay; type: cell-based; conditions: dose 1.5-3 µM
[28] = test system: MDA-MB-231; experiment: Induction of apoptosis in human MDA-MB-231 cells assessed as increase in Bax level at 1.5 to 3 uM by Western blotting analysis; type: functional, cell-based; conditions: dose 1.5-3 µM
[29] = test system: MDA-MB-231; experiment: Inhibition of STAT5 phosphorylation at Tyr694 residue in human MDA-MB-231 cells at 0.6 to 2.5 uM incubated for 24 hrs by Western blot analysis; type: cell-based; conditions: dose 0.6-2.5 µM
[30] = test system: MDA-MB-231; experiment: Antitumor activity against human MDA-MB-231 cells xenografted in female BALB/c nude mouse assessed as reduction in tumor weight at 10 mg/kg, ip administered daily and measured every 2 days for 21 days; type: functional, organism-based; conditions: time 21.0 day

O=C1C(=O)c2c(oc3c2CCN(CCN2CCCCC2)C3=O)-c2ccccc21
inhibition [1]: Dose-dependent-effect | Activity [2]: Dose-dependent-effect | Activity [3]: inactive | Activity [4]: Active | Activity [5]: inactive | Activity [6]: Active | Activity [7]: Active | Activity [8]: Dose-dependent-effect | Activity [9]: inactive | Activity [10]: Active; Less Sensitivity Observed | Activity [11]: Active | inhibition [12]: inactive | inhibition [13]: Active | Activity [14]: inactive | Activity [15]: Active | inhibition [16]: Active | inhibition [17]: Dose-dependent-effect | Activity [18]: Active | inhibition [19]: Dose-dependent-effect | inhibition [20]: Dose-dependent-effect | Activity [21]: Active | inhibition [22]: Active | Activity [23]: Dose-dependent-effect | Activity [24]: Active | inhibition [25]: Active | Activity [26]: Active; Less Sensitivity Observed | inhibition [27]: Dose-dependent-effect | Activity [28]: Active | inhibition [29]: inactive | Activity [30]: Active
